# Target: T1, 5-hydroxytryptamine receptor 1A (Homo sapiens, UniProt P08908)
# T1 sequence (P08908 whole entry): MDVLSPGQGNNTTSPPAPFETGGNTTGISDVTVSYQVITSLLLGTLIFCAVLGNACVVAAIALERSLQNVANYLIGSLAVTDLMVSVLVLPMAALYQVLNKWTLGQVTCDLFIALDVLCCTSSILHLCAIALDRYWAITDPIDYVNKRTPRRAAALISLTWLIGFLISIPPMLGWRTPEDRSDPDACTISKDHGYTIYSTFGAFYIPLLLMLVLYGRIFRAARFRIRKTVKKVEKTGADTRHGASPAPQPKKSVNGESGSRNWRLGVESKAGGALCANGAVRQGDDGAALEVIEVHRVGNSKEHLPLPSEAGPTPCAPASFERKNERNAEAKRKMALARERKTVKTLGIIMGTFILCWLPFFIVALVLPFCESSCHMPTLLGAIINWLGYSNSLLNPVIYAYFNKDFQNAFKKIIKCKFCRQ
# Assay: Binding affinity for human cloned 5-hydroxytryptamine 1A receptor
# Conditions: not given
row,SMILES,IC50 [µM]
1,CN(C)CC1CC2c3cc(F)ccc3Cc3ccc(F)cc3N2O1 (configuration not stated),> 1
2,Cc1ccc2c(c1)N1OC(CN(C)C)CC1c1ccccc1C2 (configuration not stated),> 1

# Target: 5-hydroxytryptamine receptor 1D (Homo sapiens, UniProt P28221)
# Sequence (P28221 whole entry): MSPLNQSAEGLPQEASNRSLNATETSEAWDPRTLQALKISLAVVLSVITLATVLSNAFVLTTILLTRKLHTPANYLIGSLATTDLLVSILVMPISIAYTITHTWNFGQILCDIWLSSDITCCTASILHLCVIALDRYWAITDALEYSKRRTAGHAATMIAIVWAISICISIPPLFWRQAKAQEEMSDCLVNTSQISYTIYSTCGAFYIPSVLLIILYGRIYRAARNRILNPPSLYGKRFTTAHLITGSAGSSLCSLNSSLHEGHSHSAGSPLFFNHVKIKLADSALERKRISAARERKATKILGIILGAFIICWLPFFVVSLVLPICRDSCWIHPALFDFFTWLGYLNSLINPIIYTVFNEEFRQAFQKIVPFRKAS
# Assay: Binding affinity for human cloned 5-hydroxytryptamine 1D receptor
# Conditions: not given
row,SMILES,IC50 [µM]
1,CN(C)CC1CC2c3cc(F)ccc3Cc3ccc(F)cc3N2O1 (configuration not stated),> 1
2,Cc1ccc2c(c1)N1OC(CN(C)C)CC1c1ccccc1C2 (configuration not stated),> 1

# Target: T2, 5-hydroxytryptamine receptor 2C (Homo sapiens, UniProt P28335)
# T2 sequence (P28335 whole entry): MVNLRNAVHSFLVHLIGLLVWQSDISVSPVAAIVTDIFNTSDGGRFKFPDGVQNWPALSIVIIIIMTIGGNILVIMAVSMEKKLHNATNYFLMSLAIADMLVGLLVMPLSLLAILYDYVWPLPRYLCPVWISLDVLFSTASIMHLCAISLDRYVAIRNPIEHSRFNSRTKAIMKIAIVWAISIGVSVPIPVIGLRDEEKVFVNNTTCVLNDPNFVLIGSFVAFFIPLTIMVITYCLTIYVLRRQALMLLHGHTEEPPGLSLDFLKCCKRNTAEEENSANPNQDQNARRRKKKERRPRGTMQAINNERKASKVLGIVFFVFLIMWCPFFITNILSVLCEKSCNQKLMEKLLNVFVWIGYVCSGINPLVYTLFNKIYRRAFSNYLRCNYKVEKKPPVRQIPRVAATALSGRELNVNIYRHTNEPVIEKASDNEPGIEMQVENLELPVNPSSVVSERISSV
# Assay: Binding affinity at human cloned 5-hydroxytryptamine 2C receptor expressed in CHO cells by [3H]mesulergine displacement.
# Format: cell-based
# Conditions: not given
row,SMILES,IC50 [µM]
1,CN(C)CC1CC2c3c(F)cccc3Cc3ccccc3N2O1 (configuration not stated),> 1
2,CN(C)CC1CC2c3cc(C(F)(F)F)ccc3Cc3ccccc3N2O1 (configuration not stated),> 1
3,CN(C)CC1CC2c3cccc(Cl)c3Cc3ccccc3N2O1 (configuration not stated),> 1

# Target: 5-hydroxytryptamine receptor 2A (Homo sapiens, UniProt P28223)
# Sequence (P28223 whole entry): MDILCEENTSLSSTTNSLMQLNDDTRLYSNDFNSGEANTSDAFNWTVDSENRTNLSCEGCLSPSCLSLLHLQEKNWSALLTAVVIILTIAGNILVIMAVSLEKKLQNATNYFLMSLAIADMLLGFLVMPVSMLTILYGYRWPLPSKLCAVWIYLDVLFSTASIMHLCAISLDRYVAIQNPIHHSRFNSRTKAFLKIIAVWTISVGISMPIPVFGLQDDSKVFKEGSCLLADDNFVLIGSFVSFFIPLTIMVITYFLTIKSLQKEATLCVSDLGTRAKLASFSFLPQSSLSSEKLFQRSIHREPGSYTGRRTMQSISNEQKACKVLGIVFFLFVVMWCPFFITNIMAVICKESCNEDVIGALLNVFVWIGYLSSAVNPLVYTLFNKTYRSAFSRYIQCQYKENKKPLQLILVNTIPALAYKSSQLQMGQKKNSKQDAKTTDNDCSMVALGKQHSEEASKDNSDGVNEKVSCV
# Assay: Binding affinity at human cloned 5-hydroxytryptamine 2A receptor expressed in L929 cells by [125I]R91150 displacement.
# Format: cell-based
# Conditions: not given
row,SMILES,IC50 [µM]
1,CN(C)CC1CC2c3cc(F)ccc3Cc3ccc(F)cc3N2O1 (configuration not stated),0.0107
2,CN(C)CC1CC2c3c(F)cccc3Cc3ccccc3N2O1 (configuration not stated),> 1
3,CN(C)CC1CC2c3cc(C(F)(F)F)ccc3Cc3ccccc3N2O1 (configuration not stated),> 1
4,CN(C)CC1CC2c3cccc(F)c3Cc3ccccc3N2O1 (configuration not stated),0.0316
5,CN(C)CC1CC2c3cccc(Cl)c3Cc3ccccc3N2O1 (configuration not stated),> 1

# The remaining lines, values ahead:
row,IC50 [µM],SMILES
1,0.00115,CN(C)CC1CC2c3ccccc3Cc3ccc(F)cc3N2O1 (configuration not stated)
2,0.0105,Cc1ccc2c(c1)Cc1ccccc1N1OC(CN(C)C)CC21 (configuration not stated)

# Target: Serotonin 3 (5-HT3) receptor
# Assay: Binding affinity for human cloned 5-hydroxytryptamine 3 receptor
# Format: protein-complex assay
# Conditions: not given
row,SMILES,pIC50
1,CN(C)CC1CC2c3cc(F)ccc3Cc3ccc(F)cc3N2O1 (configuration not stated),< 6
2,CN(C)CC1CC2c3ccccc3Cc3ccc(Cl)cc3N2O1 (configuration not stated),6.32

# Second part, the molecule after the results:
row,pIC50,SMILES
1,< 6,Cc1ccc2c(c1)N1OC(CN(C)C)CC1c1ccccc1C2 (configuration not stated)
2,< 6,CN(C)CC1CC2c3ccccc3Cc3ccc(F)cc3N2O1 (configuration not stated)

# Target: T3, Alpha-2A adrenergic receptor (Homo sapiens, UniProt P08913)
# T3 sequence (P08913 whole entry): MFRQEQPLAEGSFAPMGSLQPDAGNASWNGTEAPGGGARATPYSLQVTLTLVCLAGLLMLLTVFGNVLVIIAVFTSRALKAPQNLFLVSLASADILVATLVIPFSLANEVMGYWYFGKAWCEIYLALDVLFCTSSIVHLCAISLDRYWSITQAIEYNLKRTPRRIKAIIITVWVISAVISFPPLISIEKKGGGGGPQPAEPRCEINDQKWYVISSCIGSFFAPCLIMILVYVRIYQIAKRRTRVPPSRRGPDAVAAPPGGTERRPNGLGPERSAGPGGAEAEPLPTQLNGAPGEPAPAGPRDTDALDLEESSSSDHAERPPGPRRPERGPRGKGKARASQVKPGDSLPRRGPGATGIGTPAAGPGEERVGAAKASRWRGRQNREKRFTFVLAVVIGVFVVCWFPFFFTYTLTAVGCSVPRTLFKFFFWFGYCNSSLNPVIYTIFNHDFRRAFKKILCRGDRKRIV
# Assay: Binding affinity for human cloned Alpha-2A adrenergic receptor
# Conditions: not given
row,SMILES,IC50 [µM]
1,CN(C)CC1CC2c3cc(F)ccc3Cc3ccc(F)cc3N2O1 (configuration not stated),> 1
2,Cc1ccc2c(c1)N1OC(CN(C)C)CC1c1ccccc1C2 (configuration not stated),> 1

# Target: T4, Alpha-2C adrenergic receptor (Homo sapiens, UniProt P18825)
# T4 sequence (P18825 whole entry): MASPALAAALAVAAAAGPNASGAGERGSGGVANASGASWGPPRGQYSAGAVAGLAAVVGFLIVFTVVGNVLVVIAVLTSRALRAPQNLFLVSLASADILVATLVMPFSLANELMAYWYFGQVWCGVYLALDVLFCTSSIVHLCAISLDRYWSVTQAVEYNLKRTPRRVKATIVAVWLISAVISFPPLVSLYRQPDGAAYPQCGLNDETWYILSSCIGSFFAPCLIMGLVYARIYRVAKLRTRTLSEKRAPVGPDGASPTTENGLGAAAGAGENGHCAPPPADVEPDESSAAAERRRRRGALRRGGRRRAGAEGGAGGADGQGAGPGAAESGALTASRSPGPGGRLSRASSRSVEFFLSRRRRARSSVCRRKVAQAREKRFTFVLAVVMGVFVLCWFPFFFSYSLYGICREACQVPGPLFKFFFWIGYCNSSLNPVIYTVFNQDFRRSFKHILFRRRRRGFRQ
# Assay: Binding affinity for human cloned Alpha-2C adrenergic receptor
# Conditions: not given
row,SMILES,IC50 [µM]
1,CN(C)CC1CC2c3cc(F)ccc3Cc3ccc(F)cc3N2O1 (configuration not stated),> 1
2,Cc1ccc2c(c1)N1OC(CN(C)C)CC1c1ccccc1C2 (configuration not stated),> 1

# Target: T5, D(4) dopamine receptor (Homo sapiens, UniProt P21917)
# T5 sequence (P21917 whole entry): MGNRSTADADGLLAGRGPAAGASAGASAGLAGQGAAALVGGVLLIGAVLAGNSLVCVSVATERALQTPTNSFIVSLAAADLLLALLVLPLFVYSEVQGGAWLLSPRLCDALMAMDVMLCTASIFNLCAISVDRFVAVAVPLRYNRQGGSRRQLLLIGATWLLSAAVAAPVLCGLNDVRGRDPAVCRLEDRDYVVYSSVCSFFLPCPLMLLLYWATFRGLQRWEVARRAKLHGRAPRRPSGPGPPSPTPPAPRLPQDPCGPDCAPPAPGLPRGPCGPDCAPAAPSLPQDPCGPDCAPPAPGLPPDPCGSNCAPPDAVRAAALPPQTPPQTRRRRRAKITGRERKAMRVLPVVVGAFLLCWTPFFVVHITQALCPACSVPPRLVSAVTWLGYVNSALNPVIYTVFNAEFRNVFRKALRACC
# Assay: Binding affinity for human cloned Dopamine receptor D4
# Conditions: not given
row,SMILES,IC50 [µM]
1,CN(C)CC1CC2c3cc(F)ccc3Cc3ccc(F)cc3N2O1 (configuration not stated),> 1
2,Cc1ccc2c(c1)N1OC(CN(C)C)CC1c1ccccc1C2 (configuration not stated),> 1

# Target: D(3) dopamine receptor (Homo sapiens, UniProt P35462)
# Sequence (P35462 whole entry): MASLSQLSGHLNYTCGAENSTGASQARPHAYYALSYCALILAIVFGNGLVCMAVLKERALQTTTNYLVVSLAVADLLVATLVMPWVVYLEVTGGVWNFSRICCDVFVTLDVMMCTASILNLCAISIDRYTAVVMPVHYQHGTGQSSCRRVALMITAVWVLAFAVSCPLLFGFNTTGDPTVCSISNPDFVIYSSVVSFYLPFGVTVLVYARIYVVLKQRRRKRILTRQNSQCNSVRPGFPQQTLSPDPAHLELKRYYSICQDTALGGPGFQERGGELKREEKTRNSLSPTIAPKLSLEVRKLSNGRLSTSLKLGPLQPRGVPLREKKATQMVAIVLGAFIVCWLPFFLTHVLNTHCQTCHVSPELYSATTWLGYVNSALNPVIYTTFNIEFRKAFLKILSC
# Assay: Binding affinity for human cloned Dopamine receptor D3
# Conditions: not given
row,SMILES,IC50 [µM]
1,CN(C)CC1CC2c3cc(F)ccc3Cc3ccc(F)cc3N2O1 (configuration not stated),> 1
2,Cc1ccc2c(c1)N1OC(CN(C)C)CC1c1ccccc1C2 (configuration not stated),> 1

# Target: Histamine H1 receptor (Homo sapiens, UniProt P35367)
# Sequence (P35367 whole entry): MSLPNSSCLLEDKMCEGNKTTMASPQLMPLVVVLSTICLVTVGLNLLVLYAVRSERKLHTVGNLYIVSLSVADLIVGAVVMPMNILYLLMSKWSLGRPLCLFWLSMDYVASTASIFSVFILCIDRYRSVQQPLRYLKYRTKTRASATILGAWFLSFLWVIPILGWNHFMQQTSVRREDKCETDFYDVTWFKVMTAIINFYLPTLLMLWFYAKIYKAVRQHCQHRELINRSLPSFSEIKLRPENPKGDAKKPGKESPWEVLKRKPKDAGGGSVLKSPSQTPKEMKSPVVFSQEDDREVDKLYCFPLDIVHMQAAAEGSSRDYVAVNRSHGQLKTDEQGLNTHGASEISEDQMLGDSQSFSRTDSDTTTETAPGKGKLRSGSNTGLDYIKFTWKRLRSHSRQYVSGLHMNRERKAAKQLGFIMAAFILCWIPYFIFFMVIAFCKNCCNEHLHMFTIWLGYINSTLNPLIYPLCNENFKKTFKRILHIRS
# Assay: Binding affinity at human cloned Histamine H1 receptor expressed in CHO cells by [3H]pyrilamine displacement.
# Format: cell-based
# Conditions: not given
row,SMILES,IC50 [µM]
1,CN(C)CC1CC2c3c(F)cccc3Cc3ccccc3N2O1 (configuration not stated),> 1
2,CN(C)CC1CC2c3cc(C(F)(F)F)ccc3Cc3ccccc3N2O1 (configuration not stated),> 1
3,CN(C)CC1CC2c3cccc(Cl)c3Cc3ccccc3N2O1 (configuration not stated),> 1

# Target: T6, 5-hydroxytryptamine receptor 2C (Rattus norvegicus) (UniProt P08909)
# T6 sequence (whole entry): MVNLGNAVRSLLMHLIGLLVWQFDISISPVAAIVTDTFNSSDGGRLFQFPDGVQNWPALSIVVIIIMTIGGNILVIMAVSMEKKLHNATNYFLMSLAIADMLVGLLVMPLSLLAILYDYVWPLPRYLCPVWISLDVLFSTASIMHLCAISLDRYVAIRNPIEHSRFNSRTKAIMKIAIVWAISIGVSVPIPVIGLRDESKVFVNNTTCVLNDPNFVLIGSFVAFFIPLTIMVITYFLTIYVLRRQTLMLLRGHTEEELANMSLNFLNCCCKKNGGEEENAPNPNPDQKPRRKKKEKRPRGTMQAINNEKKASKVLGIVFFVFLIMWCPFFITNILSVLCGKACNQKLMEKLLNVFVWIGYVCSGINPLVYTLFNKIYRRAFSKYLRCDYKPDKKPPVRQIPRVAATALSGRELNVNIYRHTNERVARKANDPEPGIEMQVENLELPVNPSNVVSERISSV
# Assay: In vivo activity in rat mCPP challenge test following p.o. administration.
# Format: functional, organism-based
# Conditions: not given
row,SMILES,ED50 [mg/kg]
1,CN(C)CC1CC2c3cc(F)ccc3Cc3ccc(F)cc3N2O1 (configuration not stated),0.63
2,Cc1cccc2c1Cc1ccccc1C1CC(CN(C)C)ON21 (configuration not stated),> 2.5
3,CN(C)CC1CC2c3cc(C(F)(F)F)ccc3Cc3ccccc3N2O1 (configuration not stated),> 2.5
4,CN(C)CC1CC2c3ccccc3Cc3ccc(Br)cc3N2O1 (configuration not stated),2.5
5,CN(C)CC1CC2c3ccccc3Cc3ccc(Cl)cc3N2O1 (configuration not stated),0.63
6,CN(C)CC1CC2c3cccc(C(F)(F)F)c3Cc3ccccc3N2O1 (configuration not stated),> 2.5
7,CN(C)CC1CC2c3ccccc3Cc3c(F)cccc3N2O1 (configuration not stated),2.5
8,CN(C)CC1CC2c3cccc(F)c3Cc3ccccc3N2O1 (configuration not stated),2.5
9,CN(C)CC1CC2c3cccc(Cl)c3Cc3ccccc3N2O1 (configuration not stated),> 2.5

# Continued, values first:
row,ED50 [mg/kg],SMILES
1,2.5,Cc1ccc2c(c1)N1OC(CN(C)C)CC1c1ccccc1C2 (configuration not stated)
2,> 2.5,CN(C)CC1CC2c3ccccc3Cc3cccc(Cl)c3N2O1 (configuration not stated)
3,0.63,CN(C)CC1CC2c3ccccc3Cc3ccccc3N2O1 (configuration not stated)
4,2.5,CN(C)CC1CC2c3ccccc3Cc3cc(F)ccc3N2O1 (configuration not stated)
5,> 2.5,COc1ccc2c(c1)C1CC(CN(C)C)ON1c1ccccc1C2 (configuration not stated)
6,2.5,CN(C)CC1CC2c3ccccc3Cc3ccc(F)cc3N2O1 (configuration not stated)
7,> 2.5,CN(C)CC1CC2c3c(cccc3C(F)(F)F)Cc3ccccc3N2O1 (configuration not stated)
8,> 2.5,CN(C)CC1CC2c3cc(F)ccc3Cc3ccccc3N2O1 (configuration not stated)
9,> 2.5,Cc1cccc2c1C1CC(CN(C)C)ON1c1ccccc1C2 (configuration not stated)
10,> 2.5,CN(C)CC1CC2c3ccccc3Cc3ccc(-c4ccccc4)cc3N2O1 (configuration not stated)
11,2.5,Cc1ccc2c(c1)Cc1ccccc1N1OC(CN(C)C)CC21 (configuration not stated)

# System: Rattus norvegicus
# Assay: In vivo activity in mCPP challenge test were performed in male Wistar rats by subcutaneous administration
# Format: functional
# Conditions: sc
row,SMILES,ED50 [mg/kg]
1,CN(C)CC1CC2c3cc(F)ccc3Cc3ccc(F)cc3N2O1 (configuration not stated),0.04
2,CN(C)CC1CC2c3c(F)cccc3Cc3ccccc3N2O1 (configuration not stated),> 2.5
3,Cc1ccc2c(c1)N1OC(CN(C)C)CC1c1ccccc1C2 (configuration not stated),0.16
4,CN(C)CC1CC2c3cc(C(F)(F)F)ccc3Cc3ccccc3N2O1 (configuration not stated),2.5
5,CN(C)CC1CC2c3ccccc3Cc3ccccc3N2O1 (configuration not stated),0.04
6,CN(C)CC1CC2c3ccccc3Cc3ccc(Cl)cc3N2O1 (configuration not stated),0.16
7,CN(C)CC1CC2c3c(cccc3C(F)(F)F)Cc3ccccc3N2O1 (configuration not stated),2.5
8,CN(C)CC1CC2c3cc(F)ccc3Cc3ccccc3N2O1 (configuration not stated),> 2.5
9,CN(C)CC1CC2c3ccc(Cl)cc3Cc3ccccc3N2O1 (configuration not stated),> 2.5
10,CN(C)CC1CC2c3cccc(F)c3Cc3ccccc3N2O1 (configuration not stated),2.5
11,CN(C)CC1CC2c3ccccc3Cc3ccc(-c4ccccc4)cc3N2O1 (configuration not stated),> 2.5

# Target: D(2) dopamine receptor (Rattus norvegicus, UniProt P61169)
# Sequence (P61169 whole entry): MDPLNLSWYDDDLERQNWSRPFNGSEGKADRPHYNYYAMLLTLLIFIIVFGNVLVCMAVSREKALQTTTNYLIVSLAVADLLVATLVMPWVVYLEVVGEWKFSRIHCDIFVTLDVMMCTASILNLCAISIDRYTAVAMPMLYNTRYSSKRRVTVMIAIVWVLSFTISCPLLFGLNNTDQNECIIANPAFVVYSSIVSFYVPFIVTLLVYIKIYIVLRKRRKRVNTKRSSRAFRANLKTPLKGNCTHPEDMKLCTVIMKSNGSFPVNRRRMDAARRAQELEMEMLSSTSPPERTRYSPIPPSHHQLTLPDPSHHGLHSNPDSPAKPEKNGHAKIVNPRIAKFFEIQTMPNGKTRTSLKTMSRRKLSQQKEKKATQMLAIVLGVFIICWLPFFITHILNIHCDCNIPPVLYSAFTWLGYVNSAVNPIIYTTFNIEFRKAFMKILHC
# Assay: Binding affinity for rat Dopamine receptor D2
# Conditions: not given
row,SMILES,IC50 [µM]
1,Cc1ccc2c(c1)N1OC(CN(C)C)CC1c1ccccc1C2 (configuration not stated),> 1
2,CN(C)CC1CC2c3ccccc3Cc3ccc(F)cc3N2O1 (configuration not stated),> 1

# Source: ChEMBL document CHEMBL1135381, “Synthesis and structure-activity relationship of 2-(aminoalkyl)-2,3,3a,8-tetrahydrodibenzo[c,f]isoxazolo[2,3-a]azepine derivatives: a novel series of 5-HT(2A/2C) receptor antagonists. Part 2” (Bioorg Med Chem Lett, 2002)
